Experimental data taken from patent US20240302353A1, “CELL CULTURE DEVICE, KIT FOR CELL CULTURE, AND CELL CULTURE METHOD” (FUJIFILM Corporation, priority 2021, published 2024).

Test system: intestinal epithelial cells F-hiSIEC
Experiment: Permeation test of Lucifer yellow across intestinal epithelial cell sheet on cell culture insert
Type: in vitro ADME
Details: for Permeability coefficient (Papp) Average (mean): 110 μM Lucifer yellow/HBSS, 37° C., 1 hour
Description: One gas absorbent (oxygen scavenger) (Anaeropack: Mitsubishi Chemical Corporation) was installed in the upper tank of the cell culture device in FIG. 1, the upper tank portion was sealed, and the sealed upper tank portion was installed on the 6-well plate, which was the lower tank portion. In addition, intestinal epithelial cells F-hiSIEC (FUJIFILM Corporation) were seeded on a cell culture insert (Millipore) coated with Matrigel, and cultured for 9 days according to a manual using F-hiSIEC Culture Medium (FUJIFILM Corporation). 150 μL of F-hiSIEC Culture Medium (FUJIFILM Corporation) was added to an upper surface of the cell culture insert on which the cells on the 9th day of the culture had been seeded, and the cell culture insert was installed in the device from a lower side of the upper tank of the device, using the insertion tool shown in FIG. 5. While sandwiching the cell culture insert, 1 mL of a culture medium was added to a well plate of the lower tank, the upper tank portion of the device was installed in the well plate, and the entire device was placed in a CO2 incubator for culture for 72 hours. After the culture, a trans-epithelial electrical resistance (TEER) value of the intestinal epithelial cells was measured with an EVOM2 system. In addition, the permeation rate (Papp) of Lucifer yellow and the gene expression of various intestinal epithelial cell markers were compared with cells cultured under aerobic conditions in both the upper tank and the lower tank. The aerobic conditions in the upper tank and the lower tank mean cells cultured by installing a lid attached to the well plate without using the co-culture device. In the permeation test of Lucifer yellow, the upper and lower culture media in the insert containing the cells are substituted with HBSS and incubated at 37° C. for 1 hour. […] After 1 hour, the amount of substance which had passed through the lower part of the cell culture insert was quantified by a plate reader (Enspire, PerkinElmer Inc.), and the permeation rate and the permeability coefficient (Papp) were calculated.

- Permeability coefficient (Papp) Average (mean) (F-hiSIEC cells cultured 72 hours in the cell culture device (upper tank anaerobic, lower tank aerobic)): 1.54 ×10⁻⁶ cm/s
- Permeability coefficient (Papp) Average (mean) (F-hiSIEC cells cultured 72 hours under aerobic conditions in both upper and lower tank (no device)): 0.7 ×10⁻⁶ cm/s
- Increase of Papp in anaerobic cultured cells as compared with aerobic cells (anaerobic vs aerobic cultured F-hiSIEC cells, 72 hours culture): approximately 2 times
Substance: Lucifer yellow
